Laboratory results from patent US20230203485A1, “METHODS FOR MODULATING MHC-I EXPRESSION AND IMMUNOTHERAPY USES THEREOF” (Dana-Farber Cancer Institute, Inc., priority 2020, published 2023).

Legend:
Assay type in all cases: cell-based, human
[1] = system: HLA class I bound peptides of MCC cell lines; experiment: HLA class I immunoprecipitation and LC-MS/MS immunopeptidome of MCC tumors and cell lines +/- IFNγ
Description: CL=cell line (left). Correlation heatmap of peptide sequences between MCC lines at baseline and after IFN-γ treatment in motif space (right).
HLA molecules are immunoprecipitated from tumor and cell line material, peptides are eluted from HLA complex and analyzed by LC-MS/MS. After database searching, peptides are assigned to their most likely allele by prediction in HLAthena.
Up to 40 million MCC cells were immunoprecipitated. Briefly, MCC cells were harvested and lysed in ice-cold lysis buffer containing […] (pH 8.0), 1 mM EDTA (pH 8.0), 0.1M sodium chloride, Triton X-100, 0.06M octyl 3-d-glucopyranoside, 100 U/mL DNAse I, 1 mM phenylmethanesulfonyl fluoride (all from Sigma Aldrich), protease inhibitor cocktail (Roche Diagnostics, Indianapolis, Ind.). Cell lysates were centrifuged at 12,700 rpm at 4° C. for 22 min. […] Peptides of up to three IPs were combined, acid eluted, and analyzed using LC/MS/MS as described previously (Abelin, Keskin Immunity). […] Peptides were eluted in a 6-30% gradient (EasyLC 1000 or 1200, ThermoFisher Scientific) and analyzed on a QExactive Plus or Fusion Lumos (ThermoFisher Scientific). […]
For detection of the large T antigen peptide, 3 Ips of a 367 Cell line treated with IFNγ were pooled, acid eluted, fractionated using stage tip basic reverse phase separation and fractions were analyzed on a Fusion Lumos equipped with a FAIMSpro interface (Klaeger et al., in preparation).
Mass spectra were interpreted using Spectrum Mill software package v7.1 pre-Release (Agilent Technologies, Santa Clara, Calif.). […] MS/MS spectra were searched against a protein sequence database that contained 98,298 entries, including all UCSC Genome Browser genes with hg19 annotation of the genome and its protein coding transcripts (63,691 entries), common human virus sequences (30,181 entries), recurrently mutated proteins observed in tumors from 26 tissues (4,167 entries), 264 common laboratory contaminants as well as protein sequences containing somatic mutations detected in MCC cell lines. […]

[2] = system: HLA-DR expression on MCC cell lines; experiment: Flow cytometry assessment of HLA-DR expression in MCC lines at baseline and after IFN-γ; conditions: MCC-301 line
Method: FIG. 1N is a graph showing flow cytometry assessment of HLA-DR expression in all 11 MCC lines, both at baseline (light pink) and after IFN-γ treatment (red).
(§1) Cells were dissociated with Versene and incubated with 5 μL Human TruStain FcX (Fc receptor blocking solution; Biolegend, Dedham, Mass.) per million cells in […] at room temperature for 10 min. Fluorochrome-conjugated antibodies or respective isotype controls were immediately added and incubated for another 30 min at 4° C. Cells were then washed once with PBS and resuspended in PBS containing 4% paraformaldehyde and analyzed on LSR Fortessa cytometers. Additional steps were described for individual experiments as below. For upregulation of HLA Class I experiment, 5×10^5 MCC cells were treated with increasing doses of IFNα2b, IFN3, IFNγ for 24 hours, or MEK inhibitors and DMSO for 72 hours before staining with W6/32 and Live/Dead as above.

[3] = system: HLA I surface expression on MCC cell lines; experiment: Flow cytometry for HLA-I surface expression (anti-HLA-ABC, W6/32) in MCC lines at baseline and after interferon or MEK inhibitor treatment
Method: The overlaid black line plot indicates the percentage of tumor cells that stained positive for HLA-I by IHC of the corresponding original tumor (right y-axis).
Representative histogram plots show cells stained with anti-HLA class I or isotype antibodies. The experiment was performed in the MCPyV− line MCC-290 (left) and the MCPyV+ line MCC-301 (right).
as §1, with “below.” for “below. For upregulation of HLA Class I experiment, 5×10^5 MCC cells were treated with increasing doses of IFNα2b, IFN3, IFNγ for 24 hours, or MEK inhibitors and DMSO for 72 hours before staining with W6/32 and Live/Dead as above.”

Substance | number of detected peptides presented on HLA Class I ([1]; tumor derived cell lines, FIG. 3B) | HLA-DR expression [2] | HLA I surface expression, median fold increase by MFI ([3]; IFN-y exposure, the 8 inducible of 11 MCC lines, pan-class I anti-HLA-ABC antibody, median) | HLA I surface expression, range of fold increase by MFI ([3]; IFN-y exposure, the 8 inducible of 11 MCC lines, range) | HLA I surface expression response ([3]; three lines: MCC-336, -350, -358) | abundance of class I bound peptides, median fold increase ([1]; across 4 cell lines, after IFN-γ stimulation vs baseline) | frequencies of peptides mapping to each HLA allele ([1]; cell lines exposed or not to IFN-γ)
IFN-y: type II interferon, recombinant human, used to treat MCC cells | increased | inducible HLA-DR expression | 5.7 fold | 2.5-12.4 fold | not responsive | – | –
IFN-γ: interferon gamma used to stimulate MCC cell lines | – | – | – | – | – | 25 fold | increase in HLA-B-presented peptides
